Assay results as given in ChEMBL document CHEMBL1201862, “PubChem BioAssay data set” (2004).
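All cell lines were grown in 96-well plates and treated with compound for 48 hours. Here, GI50 denotes the concentration required for 50% inhibition of growth.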 Active and inactive are the calls of the source. No stated cut-off is given here; in the data, active = GI50 up to about 1.1 µM and inactive = higher.

How the values were obtained:
Test in all cases: growth of human tumour cells (NCI), 48 h
CAKI-1 = test system: CAKI-1
CCRF-CEM = test system: CCRF-CEM
EKVX = test system: EKVX
HCC 2998 = test system: HCC 2998
HCT-116 = test system: HCT-116
HOP-62 = test system: HOP-62
HT-29 = test system: HT-29
Hs-578T = test system: Hs-578T
IGROV-1 = test system: IGROV-1
MDA-MB-435 = test system: MDA-MB-435
NCI-H460 = test system: NCI-H460
OVCAR-3 = test system: OVCAR-3
OVCAR-4 = test system: OVCAR-4
RPMI-8226 = test system: RPMI-8226
SF-268 = test system: SF-268
SF-295 = test system: SF-295
SNB-19 = test system: SNB-19
U-251 = test system: U-251
UO-31 = test system: UO-31

Row | SMILES | GI50 (CAKI-1) | GI50 (CCRF-CEM) | GI50 (EKVX) | GI50 (HCC 2998) | GI50 (HCT-116) | GI50 (HOP-62) | GI50 (HT-29) | GI50 (Hs-578T) | GI50 (IGROV-1) | GI50 (MDA-MB-435) | GI50 (NCI-H460) | GI50 (OVCAR-3) | GI50 (OVCAR-4) | GI50 (RPMI-8226) | GI50 (SF-268) | GI50 (SF-295) | GI50 (SNB-19) | GI50 (U-251) | GI50 (UO-31)
1 | Cc1c(Cl)cc(C(C)(C)C)c(O)c1Cc1c(C)c(Cl)cc(C(C)(C)C)c1O | 1.32 µM (inactive) | 0.303 µM (active) | 1.4 µM (inactive) | 0.796 µM (active) | 0.536 µM (active) | 2.96 µM (inactive) | 1.54 µM (inactive) | 0.635 µM (active) | 1.1 µM (active) | 2.06 µM (inactive) | 0.634 µM (active) | 0.436 µM (active) | 1.26 µM (inactive) | 0.273 µM (active) | 1.74 µM (inactive) | 2.07 µM (inactive) | 1.8 µM (inactive) | 1.51 µM (inactive) | 1.82 µM (inactive)
2 | CN(C)CC1CCC/C(=C\c2ccc(OC(=O)c3ccc(Cl)cc3)cc2)C1=O (centres undefined) | 2.19 µM (inactive) | 0.33 µM (active) | 2.34 µM (inactive) | 9.95 µM (inactive) | 0.832 µM (active) | 3.99 µM (inactive) | 1.95 µM (inactive) | 2.57 µM (inactive) | 2.23 µM (inactive) | 1.95 µM (inactive) | 5.36 µM (inactive) | 1.6 µM (inactive) | 2.8 µM (inactive) | 0.465 µM (active) | 4.26 µM (inactive) | 3.84 µM (inactive) | 3.36 µM (inactive) | 1.5 µM (inactive) | 1.5 µM (inactive)
3 | CS(=O)(=O)Nc1ccc2ccccc2c1-c1c(NS(C)(=O)=O)ccc2ccccc12 | > 25 µM (inactive) | > 25 µM (inactive) | > 25 µM (inactive) | > 25 µM (inactive) | > 18.6 µM (inactive) | > 25 µM (inactive) | > 25 µM (inactive) | > 25 µM (inactive) | > 25 µM (inactive) | > 25 µM (inactive) | > 25 µM (inactive) | > 25 µM (inactive) | > 25 µM (inactive) | > 25 µM (inactive) | > 25 µM (inactive) | > 25 µM (inactive) | > 25 µM (inactive) | > 25 µM (inactive) | > 25 µM (inactive)
4 | Cc1oc2c(Cl)cc(O)c(Cl)c2c2cccc1-2 | 30.1 µM (inactive) | 14.1 µM (inactive) | 18.7 µM (inactive) | > 100 µM (inactive) | 16.6 µM (inactive) | 24.2 µM (inactive) | 35.2 µM (inactive) | 34.8 µM (inactive) | 23.1 µM (inactive) | 20.1 µM (inactive) | > 100 µM (inactive) | 18.1 µM (inactive) | 12 µM (inactive) | 10.4 µM (inactive) | 34.9 µM (inactive) | 31.6 µM (inactive) | 42.8 µM (inactive) | 18.9 µM (inactive) | 36.4 µM (inactive)
5 | O=C(c1nc2ccc([N+](=O)[O-])cc2nc1O)C(O)c1ccc2c(c1)OCO2 (centres undefined) | > 96.2 µM (inactive) | 83.9 µM (inactive) | > 100 µM (inactive) | > 100 µM (inactive) | 52.7 µM (inactive) | > 100 µM (inactive) | > 100 µM (inactive) | > 100 µM (inactive) | > 100 µM (inactive) | 93.1 µM (inactive) | > 100 µM (inactive) | > 50.7 µM (inactive) | > 100 µM (inactive) | 55.5 µM (inactive) | > 100 µM (inactive) | > 52.5 µM (inactive) | > 100 µM (inactive) | > 100 µM (inactive) | > 100 µM (inactive)
6 | COC(=O)C1=C(C)NC(C)=C([N+](=O)[O-])C1c1cccc(NO)c1 (centres undefined) | 8.38 µM (inactive) | 2.34 µM (inactive) | 4.34 µM (inactive) | 4.53 µM (inactive) | 2.37 µM (inactive) | 9.44 µM (inactive) | 2.86 µM (inactive) | 2.84 µM (inactive) | 5.01 µM (inactive) | 1.98 µM (inactive) | 3.37 µM (inactive) | 3.9 µM (inactive) | 6.04 µM (inactive) | 2.51 µM (inactive) | 6.01 µM (inactive) | 3.79 µM (inactive) | 6.65 µM (inactive) | 5.22 µM (inactive) | 2.96 µM (inactive)
